Source: ChEMBL document CHEMBL1201862, “PubChem BioAssay data set” (2004)
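Five compound concentrations were applied to cells in 96-well plates for 48 hours; endpoints were derived by simple linear interpolation of the resulting dose-response curve. GI50 = concentration required for 50% inhibition of growth.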 Active and inactive are the calls of the source. Cut-off read from the data, not from the text of the source: active = GI50 up to about 1.1 µM and inactive = higher.

What was measured:
Test in all cases: NCI tumour cell line growth inhibition, 48 h
HCT-15 = test system: HCT-15
NCI-H23 = test system: NCI-H23
BT-549 = test system: BT-549
SNB-75 = test system: SNB-75
HCT-116 = test system: HCT-116
NCI/ADR-RES = test system: NCI/ADR-RES
COLO 205 = test system: COLO 205
A498 = test system: A498
HOP-62 = test system: HOP-62
SF-539 = test system: SF-539
Malme-3M = test system: Malme-3M
OVCAR-8 = test system: OVCAR-8
SN12C = test system: SN12C
OVCAR-5 = test system: OVCAR-5
IGROV-1 = test system: IGROV-1
K562 = test system: K562
EKVX = test system: EKVX
T47D = test system: T47D
SF-268 = test system: SF-268
PC-3 = test system: PC-3
HOP-92 = test system: HOP-92
UACC-62 = test system: UACC-62
NCI-H226 = test system: NCI-H226
SK-MEL-28 = test system: SK-MEL-28
LOX IMVI = test system: LOX IMVI
RPMI-8226 = test system: RPMI-8226
UACC-257 = test system: UACC-257
CCRF-CEM = test system: CCRF-CEM
786-0 = test system: 786-0
U-251 = test system: U-251
Hs-578T = test system: Hs-578T
UO-31 = test system: UO-31
MOLT-4 = test system: MOLT-4
HT-29 = test system: HT-29
SW-620 = test system: SW-620
OVCAR-4 = test system: OVCAR-4
DU-145 = test system: DU-145
SR = test system: SR
SK-MEL-5 = test system: SK-MEL-5
SK-OV-3 = test system: SK-OV-3
MCF7 = test system: MCF7
NCI-H522 = test system: NCI-H522
SF-295 = test system: SF-295
KM12 = test system: KM12
A549 = test system: A549
CAKI-1 = test system: CAKI-1
SK-MEL-2 = test system: SK-MEL-2
HL-60 = test system: HL-60
OVCAR-3 = test system: OVCAR-3
MDA-N = test system: MDA-N
MDA-MB-435 = test system: MDA-MB-435
M14 = test system: M14
MDA-MB-231 = test system: MDA-MB-231
TK-10 = test system: TK-10
RXF 393 = test system: RXF 393
ACHN = test system: ACHN
SNB-19 = test system: SNB-19
HCC 2998 = test system: HCC 2998
NCI-H460 = test system: NCI-H460

O=C1c2ccccc2-c2c1c1ccccc1c(=O)n2Cc1ccccc1
GI50 (HCT-15): > 100 µM | GI50 (NCI-H23): 68.2 µM (inactive) | GI50 (BT-549): 62.7 µM (inactive) | GI50 (SNB-75): 56.4 µM (inactive) | GI50 (HCT-116): > 100 µM (inactive) | GI50 (NCI/ADR-RES): > 100 µM (inactive) | GI50 (COLO 205): > 100 µM (inactive) | GI50 (A498): 49.1 µM (inactive) | GI50 (HOP-62): 38.6 µM (inactive) | GI50 (SF-539): 57.1 µM (inactive) | GI50 (Malme-3M): > 100 µM (inactive) | GI50 (OVCAR-8): > 100 µM (inactive) | GI50 (SN12C): > 100 µM (inactive) | GI50 (OVCAR-5): > 100 µM (inactive) | GI50 (IGROV-1): 64.4 µM (inactive) | GI50 (K562): > 10 µM (inactive) | GI50 (EKVX): > 100 µM (inactive) | GI50 (T47D): > 100 µM (inactive) | GI50 (SF-268): 58.5 µM (inactive) | GI50 (PC-3): > 100 µM (inactive) | GI50 (HOP-92): 63.1 µM (inactive) | GI50 (UACC-62): 46.6 µM (inactive) | GI50 (NCI-H226): > 100 µM (inactive) | GI50 (SK-MEL-28): > 100 µM (inactive) | GI50 (LOX IMVI): > 100 µM (inactive) | GI50 (RPMI-8226): > 100 µM (inactive) | GI50 (UACC-257): 79.4 µM (inactive) | GI50 (CCRF-CEM): > 100 µM (inactive) | GI50 (786-0): 28.6 µM (inactive) | GI50 (U-251): 93.8 µM (inactive) | GI50 (Hs-578T): 43.5 µM (inactive) | GI50 (UO-31): > 100 µM (inactive) | GI50 (MOLT-4): > 100 µM (inactive) | GI50 (HT-29): > 100 µM (inactive) | GI50 (SW-620): > 100 µM (inactive) | GI50 (OVCAR-4): 14.5 µM (inactive) | GI50 (DU-145): 81.5 µM (inactive) | GI50 (SR): > 100 µM (inactive) | GI50 (SK-MEL-5): 73.6 µM (inactive) | GI50 (SK-OV-3): > 100 µM (inactive) | GI50 (MCF7): > 100 µM (inactive) | GI50 (NCI-H522): 54.3 µM (inactive) | GI50 (SF-295): 93.1 µM (inactive) | GI50 (KM12): > 100 µM (inactive) | GI50 (A549): > 100 µM (inactive) | GI50 (CAKI-1): 56.8 µM (inactive) | GI50 (SK-MEL-2): > 100 µM (inactive) | GI50 (HL-60): > 100 µM (inactive) | GI50 (OVCAR-3): > 100 µM (inactive) | GI50 (MDA-N): > 100 µM (inactive) | GI50 (MDA-MB-435): > 100 µM (inactive) | GI50 (M14): > 100 µM (inactive) | GI50 (MDA-MB-231): 50.1 µM (inactive) | GI50 (TK-10): 40.7 µM (inactive)

O=C1NC(NNc2ccccc2)=N/C1=C\c1ccco1
GI50 (HCT-15): 16 µM | GI50 (NCI-H23): 18.8 µM (inactive) | GI50 (BT-549): 21.2 µM (inactive) | GI50 (SNB-75): 24.7 µM (inactive) | GI50 (HCT-116): 14.3 µM (inactive) | GI50 (NCI/ADR-RES): 26.2 µM (inactive) | GI50 (COLO 205): 12.6 µM (inactive) | GI50 (A498): 46.8 µM (inactive) | GI50 (HOP-62): 33.9 µM (inactive) | GI50 (Malme-3M): 28.1 µM (inactive) | GI50 (OVCAR-8): 17.6 µM (inactive) | GI50 (SN12C): 22.1 µM (inactive) | GI50 (OVCAR-5): 37.7 µM (inactive) | GI50 (IGROV-1): 15.7 µM (inactive) | GI50 (RXF 393): 13.4 µM (inactive) | GI50 (EKVX): 18.7 µM (inactive) | GI50 (T47D): 14 µM (inactive) | GI50 (ACHN): 13.2 µM (inactive) | GI50 (SF-268): 22.4 µM (inactive) | GI50 (PC-3): 19.3 µM (inactive) | GI50 (HOP-92): 14.8 µM (inactive) | GI50 (UACC-62): 4.29 µM (inactive) | GI50 (SK-MEL-28): 25.4 µM (inactive) | GI50 (RPMI-8226): 16.3 µM (inactive) | GI50 (UACC-257): 21.1 µM (inactive) | GI50 (CCRF-CEM): 4.61 µM (inactive) | GI50 (786-0): 17.4 µM (inactive) | GI50 (U-251): 17.7 µM (inactive) | GI50 (Hs-578T): 26.2 µM (inactive) | GI50 (UO-31): 27.8 µM (inactive) | GI50 (MOLT-4): 30.1 µM (inactive) | GI50 (HT-29): 18.6 µM (inactive) | GI50 (SNB-19): 43.5 µM (inactive) | GI50 (SW-620): 18.1 µM (inactive) | GI50 (OVCAR-4): 14.6 µM (inactive) | GI50 (DU-145): 17.5 µM (inactive) | GI50 (HCC 2998): 17.6 µM (inactive) | GI50 (SK-MEL-5): 25.5 µM (inactive) | GI50 (SK-OV-3): > 100 µM (inactive) | GI50 (MCF7): 15.5 µM (inactive) | GI50 (NCI-H522): 12.9 µM (inactive) | GI50 (NCI-H460): 22.4 µM (inactive) | GI50 (SF-295): 39.5 µM (inactive) | GI50 (KM12): 11.2 µM (inactive) | GI50 (A549): 46.5 µM (inactive) | GI50 (CAKI-1): 14.3 µM (inactive) | GI50 (SK-MEL-2): 12.9 µM (inactive) | GI50 (HL-60): 20.3 µM (inactive) | GI50 (OVCAR-3): 17.5 µM (inactive) | GI50 (MDA-N): 26.9 µM (inactive) | GI50 (MDA-MB-435): 12.4 µM (inactive) | GI50 (M14): 8.47 µM (inactive) | GI50 (MDA-MB-231): 20 µM (inactive) | GI50 (TK-10): 18.3 µM (inactive)
